Each structure is given as a SMILES string. Where only a bound is given, the exact number is not on record here.

Here are results for 3 compounds from PMC9728921, “Characterization of a KDM5 small molecule inhibitor with antiviral activity against hepatitis B virus” (PLOS ONE, 2022).

A short description of one data set: Cytotoxicity CC50, PBMC. Type of data set: cell-based. The conditions noted are these: human, PBMC (peripheral blood mononuclear cells). From the text: a Values represent the geometric mean and multiplicative standard deviation of 3 – 5 primary human hepatocyte (PHH) donors or 5 – 10 independent experiments.
b MT-4: human T-lymphoblastoid cell line; PBMC: peripheral blood mononuclear cell; Gal-HepG2: galactose adapted human hepatoblastoma cell line; Huh-7: human hepatoma cell line; Gal-PC3: galactose adapted human prostate carcinoma cell line; MRC-5: Medical Research Council 5 embryonal lung fibroblast; NRVM: neonatal rat ventricular cardiomyocytes

Data set [1] has as its system HBV. In words: Extracellular HBV DNA (vDNA) by qPCR in HBV-infected PHH. To be noted: Hepatitis B virus. Type of data set: cell-based. As for the experimental part: (§1) Approximately 24 hours after plating, PHH were infected with HepAD38-derived GTD virus at 500 viral genome equivalents per cell in maintenance medium supplemented with 4% PEG 8000 (Promega, Madison, WI; V3011). For patient sera infections, PHH were infected with 6 μl of patient sera in maintenance medium supplemented with 4% PEG 8000. Infections were allowed to proceed for 20–24 hours before removing remaining extracellular virions by washing with maintenance medium three times. […]
Viral DNA from PHH supernatants was purified using the Qiagen DNeasy 96 kit (Germantown, MD; 69582) following the manufacturer’s recommended protocol. Briefly, 50 μl of supernatant was collected, lysed with an equal volume of Qiagen ATL buffer containing 10% proteinase K, and then incubated at 56°C for 10 minutes. Lysates were then mixed with 100 μl of […] containing ethanol, transferred into the DNeasy 96 well plate, and placed onto a vacuum manifold (Qiagen; 19504). The vacuum was applied to bind DNA to the DNeasy membrane while contaminants passed through. DNA bound to the membrane was washed first with 500 μl of AW1followed by 500 μl of AW2 buffer. After washing, plates were centrifuged (Sigma Model 4-16S) at 6000 rpm for 2 minutes. DNA was then eluted with 100 μl of pre-warmed AE buffer by a final centrifugation step of 6000 rpm for 2 minutes.
Quantification of vDNA by qPCR (quantitative polymerase chain reaction) amplification of the HBVX region of the genome was performed by combining 5 μl of DNA, 900 nM of forward primer (5’[…] 3’), 900 nM of reverse primer (5’[…]-3’), 0.2 μM TaqMan probe (5’ [6FAM] […] [NFQ-MGB] 3’), and 1X TaqMan Fast Advanced Master Mix (Thermo Fisher Scientific; 4444557) for a total reaction volume of 20 μl in 96-well PCR plates (Thermo Fisher Scientific; 4346906). qPCR was carried out on a real-time PCR system (Thermo Fisher Scientific; QuantiStudio 7 Flex) using the following conditions: 95°C for 20 seconds, followed by 40 cycles of 95°C for 1 second and 60°C for 20 second. A plasmid containing the HBV full genome was used for the standard curve.
(§2) Antiviral activity of test compounds was determined from vRNA, vDNA, HBeAg, and HBsAg data by comparing compound-treated PHH to DMSO (vehicle)-treated PHH to generate a percent of DMSO control value (% DMSO control). The % DMSO control was calculated by the following equation: %DMSOControl=100xXc/XD where Xc is the signal from the compound-treated PHH and XD is the signal from the DMSO-treated PHH. The % DMSO control for vRNA, vDNA, HBeAg, HBsAg, GAPDH, or RPLP0 was plotted versus the log of each compound concentration in GraphPad Prism (version 6; Graphpad Software, LaJolla, CA) to generate dose-response curves. […] Dose-response curves were fitted using the nonlinear regression equation “log(agonist) versus response–variable slope (four parameters)” in GraphPad Prism to determine EC50 values.
A general note: Quantitative PCR measures a nucleic acid by following its amplification.

Data set [2] concerns HBV. In words: Secreted HBsAg by immunoassay in HBV-infected PHH. It is filed as cell-based. The conditions noted are these: Hepatitis B virus. As for the experimental part:
as §1
Hepatitis B e antigen (HBeAg) and Hepatitis B surface antigen (HBsAg) were detected in culture media at the indicated time by ELISA or electrochemiluminescence assay (MSD). The HBeAg and HBsAg ELISAs were performed using the HBeAg ELISA kit (International Immuno-Diagnostics, Foster City, CA) and HBsAg ETI-MAK-2 plus kit (DiaSorin, Stillwater, MN), respectively according to the manufacturer’s instructions. Concentrations were calculated by interpolation from standard curves with purified HBeAg and HBsAg. The MSD assay was performed according to the manufacturer’s instructions (Meso Scale Diagnostics, Rockville, MD). Briefly, cultured supernatants were inactivated with 0.5% Triton X-100 (30 minutes at 37°C) and then transferred into plates pre-spotted with both an anti-HBeAg antibody (Genway Bio, San Diego, CA) and a custom anti-HBsAg antibody. The plates were then incubated for two hours at room temperature with gentle shaking, followed by a wash step in PBS with 0.5% Tween. MSD sulfate tags anti-A and anti-B (1 μg/mL each) were then added to the wells and the plates incubated for a further two hours at room temperature with gentle shaking, followed by another wash step in PBS with 0.5% Tween. A 2X solution of MSD T Buffer Read was then added and the plate was read on a Sector Imager 6000 plate scanner.
as §2

A short description of data set [3]: Cytotoxicity in HBV-infected PHH (50% decrease in GAPDH or RPLP0). To be noted: human, HBV-infected primary human hepatocytes (PHH); for CC50 at 14 days: PHH donor Hu8181, treated every three to four days for 14 days. It is filed as cell-based, human.
Another data set concerns PHH. Described as above. The conditions noted are these: treated every three to four days for 14 days. It is filed as cell-based, human.
[4] abbreviates: read-out: vDNA EC50, PHH donor BCD, HBV GTD, treated every three to four days for 14 days.
The mark [5] stands for this setting: read-out: vDNA EC50, PHH donor Hu276, HBV GTD, treated every three to four days for 14 days.
Where [6] appears, read: read-out: vDNA EC50, PHH donor Hu349, HBV GTD, treated every three to four days for 14 days.
Where [7] appears, read: read-out: vDNA EC50, PHH donor Hu4167, HBV GTD, treated every three to four days for 14 days.
[8] abbreviates: read-out: vDNA EC50, PHH donor Hu7272, HBV GTD, treated every three to four days for 14 days.
Setting [9] is: read-out: vDNA EC50, PHH donor Hu8130, HBV GTD, treated every three to four days for 14 days.
The mark [10] stands for this setting: read-out: vDNA EC50, PHH donor Hu8181, HBV GTD, treated every three to four days for 14 days.
Where [11] appears, read: read-out: HBsAg EC50, PHH donor BCD, HBV GTD, treated every three to four days for 14 days.
Setting [12] is: read-out: HBsAg EC50, PHH donor Hu276, HBV GTD, treated every three to four days for 14 days.
[13] abbreviates: read-out: HBsAg EC50, PHH donor Hu349, HBV GTD, treated every three to four days for 14 days.
The mark [14] stands for this setting: read-out: HBsAg EC50, PHH donor Hu4167, HBV GTD, treated every three to four days for 14 days.
[15] abbreviates: read-out: HBsAg EC50, PHH donor Hu7272, HBV GTD, treated every three to four days for 14 days.
[16] abbreviates: read-out: HBsAg EC50, PHH donor Hu8130, HBV GTD, treated every three to four days for 14 days.
The mark [17] stands for this setting: read-out: HBsAg EC50, PHH donor Hu8181, HBV GTD, treated every three to four days for 14 days.

Broadly, the CC50 is the concentration at which the toxic effect on the cells reaches its halfway point. Read a low CC50 as greater toxicity to the cells. `CCN(CCN(C)C)C(=O)CNCc1cc(C(=O)O)ccn1` [GS-080] gave a CC50 in the data set “Cytotoxicity CC50, PBMC” of over 44000 nM.

The term EC50 denotes the concentration needed to bring the measured effect to its halfway point. For the compound `CCOC(=O)c1cc(CNCC(=O)N(CC)CCN(C)C)ncc1Br` [GS-420], the EC50 with HBV [1] (setting [4]), in the data set on HBV [1] (setting [5]), in the data set with HBV [1] (setting [6]), with HBV [1] (setting [7]), in the data set with HBV [1] (setting [8]) and in the data set on HBV [1] (setting [9]) was over 10000 nM throughout. Besides, the EC50 with HBV [1] (setting [10]), in the data set with HBV [2] (setting [11]), with HBV [2] (setting [12]), with HBV [2] (setting [13]), in the data set on HBV [2] (setting [14]) and in the data set with HBV [2] (setting [15]) was over 10000 nM in each case. Also, the EC50 in the data set on HBV [2] (setting [16]) and with HBV [2] (setting [17]) was over 10000 nM in each case. Besides, the CC50 at 14 days in data set [3] was over 10000 nM. The CC50 in the data set with PHH (PHH donor Hu276), with PHH (PHH donor Hu349), in the data set on PHH (PHH donor Hu4167), with PHH (PHH donor Hu7272), in the data set with PHH (PHH donor Hu8130) and in the data set on PHH (PHH donor) was over 10000 nM in each case.

Turning to `CCOC(=O)c1ccnc(CNCC(=O)N(CC)CCN(C)C)c1` [GS-5801], the EC50 with HBV [1] (336 h, read-out: EC50 range across genotypes, extracellular HBV DNA, range across genotypes, 14 days of dosing) is 79 to 250 nM; in the data set on HBV [1] (336 h, read-out: EC50 range for extracellular DNA, range over the seven PHH donors tested, HBV GTD, Day 14) it was 7.1 to 1300 nM; in the data set on HBV [1] (336 h, read-out: median EC50, extracellular HBV DNA, median across HBV genotypes, 14 days of dosing), 200 nM; in the data set on HBV [1] (setting [4]), 7.1 nM; with HBV [1] (setting [5]), 70 nM; in the data set on HBV [1] (setting [6]), 230 nM. Moreover, the EC50 amounted to 110 nM with HBV [1] (setting [7]); 1100 nM in the data set on HBV [1] (setting [8]); 1300 nM with HBV [1] (setting [9]); 140 nM in the data set with HBV [1] (setting [10]); 170 nM with HBV [1] (read-out: vDNA EC50, PHH infected with HBV GTA, treated every three to four days for 13 days); 79 nM in the data set with HBV [1] (read-out: vDNA EC50, PHH infected with HBV GTC, treated every three to four days for 13 days). Besides, the EC50 is 220 nM in the data set on HBV [1] (read-out: vDNA EC50, PHH infected with HBV GTD, treated every three to four days for 13 days (Table 3)); 250 nM in the data set on HBV [1] (read-out: vDNA EC50, PHH infected with HBV GTE, treated every three to four days for 13 days); 170 nM in the data set with HBV [2] (336 h, read-out: EC50, secreted HBsAg, across HBV genotypes (summary value), 14 days of dosing); 36 to 3100 nM with HBV [2] (336 h, read-out: EC50 range across genotypes, secreted HBsAg, range across genotypes, 14 days of dosing); 15 to 1700 nM with HBV [2] (336 h, read-out: EC50 range for secreted HBsAg, range over the seven PHH donors tested, HBV GTD, Day 14); 15 nM with HBV [2] (setting [11]). In addition, the EC50 in the data set on HBV [2] (setting [12]) turned out to be 150 nM; in the data set on HBV [2] (setting [13]), 970 nM; in the data set on HBV [2] (setting [14]) it was 240 nM; in the data set with HBV [2] (setting [15]), 5100 nM; in the data set on HBV [2] (setting [16]) it was 1700 nM; in the data set on HBV [2] (setting [17]) it was 61 nM. Besides, the EC50 with HBV [2] (read-out: HBsAg EC50, PHH infected with HBV GTA, treated every three to four days for 13 days) is 36 nM; in the data set on HBV [2] (read-out: HBsAg EC50, PHH infected with HBV GTC, treated every three to four days for 13 days), 120 nM; in the data set with HBV [2] (read-out: HBsAg EC50, PHH infected with HBV GTD, treated every three to four days for 13 days (Table 3)), 220 nM; in the data set on HBV [2] (read-out: HBsAg EC50, PHH infected with HBV GTE, treated every three to four days for 13 days), 3100 nM. Also, in data set [3], the CC50 at 14 days was over 10000 nM. Also, the CC50 (in data set [3] (the seven PHH donors tested); in the data set with PHH (PHH donor Hu276); in the data set with PHH (PHH donor Hu349); in the data set with PHH (PHH donor Hu4167); in the data set with PHH (PHH donor Hu7272); with PHH (PHH donor Hu8130)) was over 10000 nM each time. The CC50 is over 10000 nM with PHH (PHH donor) and over 44000 nM in the data set “Cytotoxicity CC50, PBMC”.
